Source: US11306115B2, “Aminoglycoside derivatives and uses thereof in treating genetic disorders” (priority 2015, dated 2022)
“Also recorded” adds a separate entry of the source.

Assays:
[1] = test system: cystic fibrosis G542X nonsense mutation; experiment: Readthrough activity in cell-free assay, cystic fibrosis G542X nonsense mutation suppression dose-response; format: biochemical, rabbit; details: concentration range 0-50 μM; for mutation suppression activity (firefly expression and firefly/renilla expression ratio, G542X mutant sequence): FIGS. 4-7; for protein synthesis inhibitory effect (expression levels up or downstream of the WT sequence): FIGS. 4A, 4C, 4E, 6
Procedure: (§1) The plasmids were transcribed in vitro and translated using rabbit reticulocytes (TNT mix) and then tested for the expression levels of the firefly and renilla luciferases. WT plasmids expressed both firefly and renilla luciferases while mutant plasmids expressed only the renilla luciferase due to the stop codon found in the inserted sequence. The readthrough assays were conducted for the tested compounds and the controls by adding the compounds to the in vitro transcription/translation reaction mixture. In case the compounds exerted suppression of the premature nonsense/stop codon mutation, the firefly luciferase was expressed and a fold-change in its expression was observed.
Readthrough activity of Cystic Fibrosis (CF) mutation G542X was tested using the compounds presented in Table 1, and the mutation suppression was calculated based on firefly/renilla expression ratio values, and normalized with respect to the expression level of the WT and the control sample (no tested compound).

[2] = test system: Rett syndrome R168X, R270X and R294X nonsense mutations; experiment: Readthrough activity in cell-free assay, Rett syndrome nonsense mutations suppression; format: biochemical, rabbit; details: 5 μM, FIGS. 8A-C; for firefly/renilla expression ratio compared with the control, wild type cell extracts: WT
Procedure: as §1
FIGS. 8A-C present the results of Rett syndrome R168X (FIG. 8A), R270X (FIG. 8B) and R294X (FIG. 8C) nonsense mutations suppression cell-free assays conducted for six exemplary compounds according to embodiments of the present invention, NB144, NB145, NB146, NB150, NB151 and NB152, at a concentration of 5 μM. As shown therein, when compared with the control (non-treated cell extracts), the wild type cell extracts are unaffected (approx. 100%); however, in all three Rett syndrome mutation models there is a significant impact of the different treatments on the readthrough activity (>>>100%).

[3] = test system: Rett syndrome causing premature stop codon mutations R168X, R270X and R294X; format: cell-based, human; details: offered as explanation of limited readthrough level, 0.3 and 1 mM

Structure (SMILES) | mutation suppression activity (firefly expression and firefly/renilla expression ratio, G542X mutant sequence) [1] | firefly/renilla expression ratio compared with the control, wild type cell extracts [2] | cytotoxicity [3] | protein synthesis inhibitory effect (expression levels up or downstream of the WT sequence) [1] | readthrough activity, comparison in words [2]
C[C@@H](O)C1O[C@H](O[C@@H]2C(N)C[C@@H](N)C(O)C2O[C@@H]2O[C@H](CNC(=N)N)C(O)C2O)C(N)C(O)[C@@H]1O (stereo in doubt) [NB151] | notable dose-dependent readthrough activity | approx. 100% | – | – | –
C[C@@H](O)C1O[C@H](O[C@@H]2C(N)CC(NC(=N)N)[C@@H](O)C2O)C(N)[C@H](O)[C@@H]1O (stereo in doubt) [NB150] | notable dose-dependent readthrough activity | approx. 100% | – | – | –
C[C@@H](O)C1O[C@H](O[C@@H]2C(N)CC(NCc3ccccc3)[C@@H](O)C2O)C(N)C(O)[C@@H]1O (stereo in doubt) [NB145] | notable dose-dependent readthrough activity | approx. 100% | – | – | –
CN[C@@H]1[C@@H](O)[C@@H](O[C@@H]2[C@@H](O)[C@H](O[C@H]3O[C@H]([C@@H](C)O)[C@@H](O)[C@H](O)[C@H]3N)[C@@H](N)C[C@H]2N)OC[C@]1(C)O [Compound G418] | – | – | significant cytotoxicity | – | –
CCCNC1CC(N)[C@@H](O[C@H]2OC([C@@H](C)O)[C@@H](O)C(O)C2N)C(O)[C@@H]1O (stereo in doubt) [NB146] | clearly dose-dependent; also recorded: notable dose-dependent readthrough activity | approx. 100% | – | more protein synthesis inhibitory effect | better activity compared to NB144 and NB145
C[C@@H](O)C1O[C@H](O[C@@H]2C(N)C[C@@H](NC(=O)C(O)CCN)C(O)C2O[C@@H]2O[C@H](CNC(=N)N)C(O)C2O)C(N)C(O)[C@@H]1O (stereo in doubt) [NB152] | notable dose-dependent readthrough activity | approx. 100% | – | protein synthesis inhibition | higher activity compared to NB150 and NB151
CC(C)CNC1CC(N)[C@@H](O[C@H]2OC([C@@H](C)O)[C@@H](O)C(O)C2N)C(O)[C@@H]1O (stereo in doubt) [NB144] | notable dose-dependent readthrough activity | approx. 100% | – | – | –
